Assay results published in article PMC8843171 (Journal of Enzyme Inhibition and Medicinal Chemistry, 2022).

Columns and labels:
Assay in all cases: stopped-flow CO2 hydrase assay
Format in all cases: biochemical
Conditions in all cases: read-out: [drawing 1] / 1
hCA VII = molecular target: T1, hCA VII (Homo sapiens, UniProt P43166)
T1 construct: gene CA7; recombinant, in-house
From the text: stopped-flow CO2 hydrase assay on hCA VII

hCA VA = molecular target: T2, hCA VA (Homo sapiens, UniProt P35218)
T2 construct: gene CA5A; recombinant, in-house
From the text: stopped-flow CO2 hydrase assay on hCA VA

hCA XII = molecular target: T3, hCA XII (Homo sapiens, UniProt O43570)
T3 construct: gene CA12; recombinant, in-house
From the text: stopped-flow CO2 hydrase assay on hCA XII

hCA I = molecular target: T4, hCA I (Homo sapiens, UniProt P00915)
T4 construct: gene CA1; recombinant, in-house
From the text: stopped-flow CO2 hydrase assay on hCA I

hCA VB = molecular target: T5, hCA VB (Homo sapiens, UniProt Q9Y2D0)
T5 construct: gene CA5B; recombinant, in-house
From the text: stopped-flow CO2 hydrase assay on hCA VB

hCA IV = molecular target: T6, hCA IV (Homo sapiens, UniProt P22748)
T6 construct: gene CA4; recombinant, in-house
From the text: stopped-flow CO2 hydrase assay on hCA IV

hCA II = molecular target: T7, hCA II (Homo sapiens, UniProt P00918)
T7 construct: gene CA2; recombinant, in-house
From the text: stopped-flow CO2 hydrase assay on hCA II

hCA IX = molecular target: T8, hCA IX (Homo sapiens, UniProt Q16790)
T8 construct: gene CA9; recombinant, in-house
From the text: stopped-flow CO2 hydrase assay on hCA IX

hCA XIV = molecular target: T9, hCA XIV (Homo sapiens, UniProt Q9ULX7)
T9 construct: gene CA14; recombinant, in-house
From the text: stopped-flow CO2 hydrase assay on hCA XIV

hCA VI = molecular target: T10, hCA VI (Homo sapiens, UniProt P23280)
T10 construct: gene CA6; recombinant, in-house
From the text: stopped-flow CO2 hydrase assay on hCA VI

hCA XIII = molecular target: T11, hCA XIII (Homo sapiens, UniProt Q8N1Q1)
T11 construct: gene CA13; recombinant, in-house
From the text: stopped-flow CO2 hydrase assay on hCA XIII

T3 sequence (O43570 25-354): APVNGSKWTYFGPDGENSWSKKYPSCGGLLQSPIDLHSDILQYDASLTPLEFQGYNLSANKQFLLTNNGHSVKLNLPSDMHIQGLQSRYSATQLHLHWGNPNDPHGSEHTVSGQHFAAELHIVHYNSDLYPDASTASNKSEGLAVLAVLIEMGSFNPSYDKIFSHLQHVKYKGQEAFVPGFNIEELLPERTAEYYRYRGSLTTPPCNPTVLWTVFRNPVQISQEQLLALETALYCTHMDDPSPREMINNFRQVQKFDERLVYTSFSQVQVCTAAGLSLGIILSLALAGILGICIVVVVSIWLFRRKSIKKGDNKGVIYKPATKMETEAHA
T1 sequence (P43166 whole entry): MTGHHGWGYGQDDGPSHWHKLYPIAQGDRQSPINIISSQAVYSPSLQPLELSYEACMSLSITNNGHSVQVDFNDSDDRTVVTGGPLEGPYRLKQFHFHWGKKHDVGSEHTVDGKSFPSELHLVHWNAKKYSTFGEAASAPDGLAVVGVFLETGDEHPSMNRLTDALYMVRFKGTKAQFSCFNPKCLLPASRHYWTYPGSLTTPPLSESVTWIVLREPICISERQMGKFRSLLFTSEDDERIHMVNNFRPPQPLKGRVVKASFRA
T4 sequence (P00915 2-261): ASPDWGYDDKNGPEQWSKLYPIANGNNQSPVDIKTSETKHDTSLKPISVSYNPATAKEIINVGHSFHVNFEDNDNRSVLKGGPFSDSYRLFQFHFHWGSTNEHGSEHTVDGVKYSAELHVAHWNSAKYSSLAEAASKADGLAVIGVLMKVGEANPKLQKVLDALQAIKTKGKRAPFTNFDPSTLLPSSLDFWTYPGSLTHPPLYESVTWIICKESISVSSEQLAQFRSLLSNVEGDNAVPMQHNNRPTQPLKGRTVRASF
T5 sequence (Q9Y2D0 34-317): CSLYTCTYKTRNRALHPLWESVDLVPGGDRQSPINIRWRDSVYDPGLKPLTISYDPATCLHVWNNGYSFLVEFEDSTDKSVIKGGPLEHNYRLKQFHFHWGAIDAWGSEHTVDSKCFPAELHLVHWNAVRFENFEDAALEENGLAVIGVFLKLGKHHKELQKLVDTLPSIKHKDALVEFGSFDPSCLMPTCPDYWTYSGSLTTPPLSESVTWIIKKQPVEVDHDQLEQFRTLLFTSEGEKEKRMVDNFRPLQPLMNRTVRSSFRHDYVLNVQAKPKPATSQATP
T6 sequence (P22748 19-284): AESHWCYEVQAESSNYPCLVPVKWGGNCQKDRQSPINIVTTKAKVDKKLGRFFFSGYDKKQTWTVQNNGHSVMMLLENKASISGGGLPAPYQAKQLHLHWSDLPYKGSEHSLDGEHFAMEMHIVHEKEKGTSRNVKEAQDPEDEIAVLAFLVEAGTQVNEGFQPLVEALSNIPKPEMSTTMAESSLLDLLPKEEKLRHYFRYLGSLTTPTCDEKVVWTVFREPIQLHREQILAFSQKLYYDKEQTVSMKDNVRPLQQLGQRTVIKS
T10 sequence (P23280 18-308): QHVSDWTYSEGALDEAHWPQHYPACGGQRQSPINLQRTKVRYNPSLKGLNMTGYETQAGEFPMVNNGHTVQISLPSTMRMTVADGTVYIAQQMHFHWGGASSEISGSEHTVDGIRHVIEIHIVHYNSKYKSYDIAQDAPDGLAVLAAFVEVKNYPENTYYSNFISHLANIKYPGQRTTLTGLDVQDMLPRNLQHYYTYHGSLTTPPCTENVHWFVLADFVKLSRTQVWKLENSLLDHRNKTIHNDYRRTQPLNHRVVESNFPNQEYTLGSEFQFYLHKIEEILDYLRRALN
T9 sequence (Q9ULX7 16-290 limits assumed): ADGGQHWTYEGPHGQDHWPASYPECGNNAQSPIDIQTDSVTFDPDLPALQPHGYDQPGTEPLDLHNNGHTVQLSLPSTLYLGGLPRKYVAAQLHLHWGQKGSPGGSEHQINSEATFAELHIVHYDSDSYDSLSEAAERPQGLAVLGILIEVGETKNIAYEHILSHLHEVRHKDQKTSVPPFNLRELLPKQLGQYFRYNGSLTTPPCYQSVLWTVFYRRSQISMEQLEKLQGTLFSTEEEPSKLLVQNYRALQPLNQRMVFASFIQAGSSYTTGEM
T2 sequence (P35218 39-305): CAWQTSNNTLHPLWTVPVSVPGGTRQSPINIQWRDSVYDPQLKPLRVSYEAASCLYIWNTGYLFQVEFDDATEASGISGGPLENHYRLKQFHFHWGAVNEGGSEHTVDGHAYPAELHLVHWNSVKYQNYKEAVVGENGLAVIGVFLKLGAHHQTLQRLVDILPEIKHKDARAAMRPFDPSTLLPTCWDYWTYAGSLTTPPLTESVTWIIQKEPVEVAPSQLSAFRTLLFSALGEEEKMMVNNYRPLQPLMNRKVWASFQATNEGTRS
T11 sequence (Q8N1Q1 whole entry): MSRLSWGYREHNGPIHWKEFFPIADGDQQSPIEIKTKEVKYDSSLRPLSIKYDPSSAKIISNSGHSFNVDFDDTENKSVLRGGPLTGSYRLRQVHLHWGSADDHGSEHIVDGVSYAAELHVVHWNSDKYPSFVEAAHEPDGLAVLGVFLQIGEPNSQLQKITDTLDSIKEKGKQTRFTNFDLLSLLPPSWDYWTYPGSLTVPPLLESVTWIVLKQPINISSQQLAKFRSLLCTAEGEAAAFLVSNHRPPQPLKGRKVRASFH

## Cc1cnc(C(=O)O)c[n+]1[O-] [compound 1, Acipimox]
hCA VII
  Ki: 9.2 µM
hCA VA
  Ki: 7.5 µM
hCA XII
  Ki: 8.4 µM
hCA I
  Ki: 3.3 µM
hCA VB
  Ki: 2800 nM
hCA IV
  Ki: 8.8 µM
hCA II
  Ki: 7.5 µM
hCA IX
  Ki: 6.3 µM
hCA XIV
  Ki: 5.9 µM
hCA VI
  Ki: 7 µM
hCA XIII
  Ki: 87 µM
